Data on 22 compounds can be found in ChEMBL document CHEMBL1127994, “Substrate specificity of immobilized penicillin-G acylase towards penicillin and cephalosporin derivatives was studied. The phenylacetyl moiety can be altered at the -position with several small substituents. Depending on polarity and size of the substituent, enzyme activity decreases or increases. …” (Bioorg Med Chem Lett, 1994).

Where only a bound is given, the exact number is not on record here.

For orientation: half-life means the time in which the quantity being followed falls by half. Low readings indicate fast loss, high ones slow loss.

One data set deals with penicillin-G acylase. Briefly: (§1) Hydrolysis half life using immobilized penicillin-G acylase. Type of data set: ADME. Conditions: immobilized penicillin-G acylase.
For the compound `CC1(C)S[C@@H]2[C@H](NC(=O)C(Cc3ccccc3)c3ccccc3)C(=O)N2[C@H]1C(=O)O` (some centres not stated), the half-life worked out at 7000 min. The compound `CC1=C(C(=O)O)N2C(=O)[C@@H](NC(=O)COc3ccccc3)[C@H]2[S+]([O-])C1` (some centres not stated) registered a half-life of 1420 min. This half-life is about 4.9-fold lower than that of the compound before. Take `CC1=C(C(=O)O)N2C(=O)[C@@H](NC(=O)Cc3ccccc3)[C@H]2SC1`: the half-life was 45 min. This half-life lies about 32-fold lower than the previous one. In the case of `CC1=C(C(=O)O)N2C(=O)[C@@H](NC(=O)COc3ccccc3)[C@H]2SC1`, the half-life is 1280 min. Consider `CC1=C(C(=O)O)N2C(=O)[C@@H](NC(=O)C(O)c3ccccc3)[C@H]2SC1` (some centres not stated), for which the half-life is 5 min. Against the preceding compound, the half-life is about 260-fold lower.

The compound `CC1(C)[C@H](C(=O)O)N2C(=O)[C@@H](NC(=O)Cc3ccccc3)[C@H]2[S+]1[O-]` (some centres not stated) had a half-life of 90 min. Against the preceding compound, the half-life is about 18-fold higher. The compound `CC1(C)S[C@@H]2[C@H](NC(=O)[C@H](N)c3ccccc3)C(=O)N2[C@H]1C(=O)O` [AMPICILLIN] showed a half-life of 5 min. The compound `CC1=C(C(=O)O)N2C(=O)[C@@H](NC(=O)Cc3ccsc3)[C@H]2SC1` returned a half-life of 65 min. This half-life is about 13-fold higher than that of the compound before. `C/C=C/C1=C(C(=O)O)N2C(=O)[C@@H](NC(=O)Cc3ccccc3)[C@H]2SC1` gave a half-life of 50 min. Compound `CC1(C)S[C@@H]2[C@H](NC(=O)Cc3ccccc3)C(=O)N2[C@H]1C(=O)O` [PENICILLIN G] registered a half-life of 25 min. For `CC1=C(C(=O)O)N2C(=O)[C@@H](NC(=O)C(Br)c3ccccc3)[C@H]2[S+]([O-])C1` (some centres not stated), the half-life amounted to 370 min. Still for that read-out and setting: as for `CC1=C(C(=O)O)N2C(=O)[C@@H](NC(=O)c3ccccc3)[C@H]2SC1`, the figure is above 10000 min; as for `CC1=C(C(=O)O)N2C(=O)[C@@H](NC=O)[C@H]2[S+]([O-])C1` (some centres not stated), above 10000 min; as for `CC1(C)S[C@@H]2[C@H](NC(=O)C(Br)c3ccccc3)C(=O)N2[C@H]1C(=O)O` (some centres not stated), 80 min. The same measure, in the same setting: as for `CC1(C)S[C@@H]2[C@H](NC(=O)[C@H](N)c3ccc(O)cc3)C(=O)N2[C@H]1C(=O)O` [AMOXICILLIN], the figure is 12 min.

`C=CC1=C(C(=O)O)N2C(=O)[C@@H](NC(=O)Cc3ccccc3)[C@H]2SC1` registered a half-life of 55 min.

Turning to `Cn1nnnc1SCC1=C(C(=O)O)N2C(=O)[C@@H](NC(=O)Cc3ccccc3)[C@H]2SC1`, the half-life was found to be 50 min. This half-life and that of the compound before are within 1.5-fold of each other.

In turn, `O=C(Cc1ccccc1)N[C@@H]1C(=O)N2C(C(=O)O)=CCS[C@H]12` returned a half-life of 25 min. Same read-out and setting: then `CCC(C(=O)N[C@@H]1C(=O)N2[C@@H]1SC(C)(C)[C@@H]2C(=O)O)c1ccccc1` (some centres not stated), with 3400 min. Still for that read-out and setting: as for `CC1(C)[C@H](C(=O)O)N2C(=O)[C@@H](NC(=O)Cc3ccccc3)[C@H]2S1(=O)=O`, the figure is 50 min.

System in a further data set: not listed separately
Described as §1. Type of data set: ADME.
Conditions: not given
`CC1=C(C(=O)O)N2C(=O)[C@@H](NC(=O)Cc3ccccc3)[C@H]2[S+]([O-])C1` (stereo in doubt; form 2) gave a T1/2 of 33 min. Compound `CC1=C(C(=O)O)N2C(=O)[C@@H](NC(=O)Cc3ccccc3)[C@H]2[S+]([O-])C1` (stereo in doubt; form 1) came in with a T1/2 of 200 min.
